Data taken from patent publication US11642352B2, “Methods of treating wandering in Lewy dody dementia” (WOOLSEY PHARMACEUTICALS, INC., priority 2020, dated 2023).
Where a name gives a salt, the structure may show the parent alone. Read-outs that look alike come from different tables or passages of the source.

Legend:
[1] = in vivo, metabolite of fasudil; cited from earlier work
humans (AD) = details: cited from earlier work
[2] = tested on: patients with Alzheimer's Dementia (AD) and frontotemporal dementia (FTD); test: clinical trial of oral fasudil on frequency of wandering (Example 1); type: in vivo, human
Text: Twenty patients, 10 with AD and 10 with FTD and an MMSE score ≤23, who are characterized wanderers, are enrolled into the study and observed for 2 weeks to confirm wandering behavior. […] The double-blind phase is followed by another treatment period of 6 weeks with the opposite treatment assignment (placebo or test drug taken with food).
The following inclusion criteria are applied:
1. Patients 50 years to 90 years of age.
2. Diagnosis of dementia (AD or VaD or mixed type) for at least 6 months.
3. For entering observation period and for entering open label treatment period: Wanders:
• a. Walks distinctly more than average as others of same age and ability AND/OR • b. Elopement behavior ≥3×per week in the opinion of the investigator For entering first double-blind treatment period: Wanders: • a. Walks less than half the mean distance measured in observation period AND/OR • b. Elopement behavior <1× per week in the opinion of the investigator AND/OR • c. Wandering has improved in the opinion of the Investigator. 4. For entering observation period and for entering open label treatment period: • a. MMSE between 10 and 25.
Wandering is measured in term of time in motion and distance traveled (measures of persistent wandering), attempted and successful boundary transgressions (measures of elopement) and patterns like pacing a lapping (indicative of persistent wandering and/or agitation or anxiety) using an electronic tracking device. A typical tracking device would use a combination of accelerometry with positioning, using technology like RFID or Bluetooth in an indoor environment and GPS outdoors. Other wayfinding, orientation and memory-associated wandering incidents are observed and recorded manually.
Wandering is measured in term of time in motion and attempted successful boundary transgression using an electronic tracking device. Other wayfinding, orientation and memory-associated wandering incidents are observed and recorded manually.
The Mini Mental State Exam (MMSE), Woolsey Wandering Questionnaire and Revised Algase Wandering Scale are administered at baseline and at the end of each treatment period. Any change in the use of antipsychotics or anxiolytics that could affect movement during the study is strongly discouraged.

[3] = tested on: patients with wandering due to VaD; details: cited from earlier work
[4] = tested on: triple transgenic mouse model (APP Swedish, MAPT P301L, and PSEN1 M146V); details: 10 mg/kg/day intraperitoneally; cited from earlier work
APP/PS1 transgenic mice = details: 5 and 10 mg/kg/day intraperitoneally; cited from earlier work
streptozotocin rats = details: intraperitoneally; cited from earlier work
triple transgenic mice = details: 10 or 12 months of age, administered in water at 30 mg/kg and 100 mg/kg; cited from earlier work
[5] = on drug as compared to placebo, 90 mg/day (30 mg TID)

O=S(=O)(c1cccc2c(O)nccc12)N1CCCNCC1 [M3]
half-life [1]: about 8 hours

O=c1ncn2nc(Sc3ccc(F)cc3F)ccc2c1-c1c(Cl)cccc1Cl [Neflamapimod]
primary endpoint of improving episodic memory (humans (AD); Phase 2): failed
tau in the cerebrospinal fluid (humans (AD); Phase 2): reducing tau
Aβ deposition (humans (AD); humans): no effect

O=S(=O)(c1cccc2cnccc12)N1CCCNCC1 [fasudil, Hexahydro-1-(5-isoquinolinesulfonyl)-1H-1,4-diazepine monohydrochloride hemihydrate]
wandering ([2]; 90 mg/day (30 mg TID) oral, 6 weeks, AD and FTD patients): significant reduction in wandering
mean increase in MMSE score, persistent wanderers [2, 5]: greater than 3 points
reduction of activity levels in persistent wanderers [2, 5]: about 50%
wayfinding errors and other problematic behaviors in sporadic wanderers ([2]; while on drug, 90 mg/day (30 mg TID)): significant reduction
wandering symptoms ([3]; patient with Binswanger-type cerebral infarction, within weeks of beginning treatment): wandering symptoms disappeared
wandering symptoms ([3]; patient with sequelae of cerebral bleeding and multiple lacunar infarctions): Wandering symptoms disappeared quickly
ß-amyloid plaques in vivo [4]: reduce ß-amyloid plaques
latency distance and quadrant time in the Morris water maze (APP/PS1 transgenic mice): improved
latency distance and quadrant time in the Morris water maze (streptozotocin rats): improved
spatial memory (triple transgenic mice): did not observe improvements
